Entries after “also recorded” stand apart in the source; their conditions may differ.
Key:
C-cell calcium receptor = biological target: T1, C-cell calcium receptor (Rattus norvegicus, UniProt P48442); type: cell-based
T1 construct: Neoplastic C-cells derived from a rat medullary thyroid carcinoma (rMTC 6-23); host or cells: rMTC 6-23 cells
T1 sequence (P48442 20-1079): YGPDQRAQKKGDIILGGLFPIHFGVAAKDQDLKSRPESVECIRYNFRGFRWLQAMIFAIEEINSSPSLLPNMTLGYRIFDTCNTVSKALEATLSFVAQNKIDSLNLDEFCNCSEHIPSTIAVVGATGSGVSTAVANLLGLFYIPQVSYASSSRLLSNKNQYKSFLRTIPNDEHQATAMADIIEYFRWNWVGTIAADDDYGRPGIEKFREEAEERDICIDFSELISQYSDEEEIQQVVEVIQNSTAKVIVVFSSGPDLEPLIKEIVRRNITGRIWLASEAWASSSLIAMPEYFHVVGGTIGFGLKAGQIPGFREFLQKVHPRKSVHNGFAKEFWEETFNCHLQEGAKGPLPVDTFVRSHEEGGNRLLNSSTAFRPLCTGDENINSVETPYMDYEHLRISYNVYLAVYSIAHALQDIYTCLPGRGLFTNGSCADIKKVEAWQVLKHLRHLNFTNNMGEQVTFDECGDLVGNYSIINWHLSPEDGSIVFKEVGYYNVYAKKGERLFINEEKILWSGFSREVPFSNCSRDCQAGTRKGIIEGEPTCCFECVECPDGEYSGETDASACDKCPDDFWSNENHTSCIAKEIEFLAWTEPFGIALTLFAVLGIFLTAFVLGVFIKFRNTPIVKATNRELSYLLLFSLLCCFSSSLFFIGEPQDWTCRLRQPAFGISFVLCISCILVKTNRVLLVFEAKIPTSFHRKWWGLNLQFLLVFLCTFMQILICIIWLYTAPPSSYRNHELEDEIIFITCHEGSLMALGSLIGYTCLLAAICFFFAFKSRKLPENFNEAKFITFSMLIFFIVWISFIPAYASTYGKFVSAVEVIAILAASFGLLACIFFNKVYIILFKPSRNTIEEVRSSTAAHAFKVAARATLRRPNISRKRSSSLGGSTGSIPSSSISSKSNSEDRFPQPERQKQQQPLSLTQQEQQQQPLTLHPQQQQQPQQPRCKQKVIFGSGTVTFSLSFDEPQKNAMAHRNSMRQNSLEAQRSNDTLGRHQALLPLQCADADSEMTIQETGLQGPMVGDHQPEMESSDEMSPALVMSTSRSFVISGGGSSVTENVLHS
Excerpt: To assess the effects of molecular polycations on C-cells, a neoplastic cell line, derived from a rat medullary thyroid carcinoma (rMTC 6-23 cells) was used.

calcium receptor = biological target: T2, calcium receptor (Homo sapiens, UniProt P41180); test: Xenopus oocytes injected with human parathyroid cell mRNA; type: cell-based; conditions: for effect on Cl- current: oocytes injected with human parathyroid mRNA; for effect in water-injected oocytes: neomycin B 10 mM
T2 sequence (P41180 20-1078): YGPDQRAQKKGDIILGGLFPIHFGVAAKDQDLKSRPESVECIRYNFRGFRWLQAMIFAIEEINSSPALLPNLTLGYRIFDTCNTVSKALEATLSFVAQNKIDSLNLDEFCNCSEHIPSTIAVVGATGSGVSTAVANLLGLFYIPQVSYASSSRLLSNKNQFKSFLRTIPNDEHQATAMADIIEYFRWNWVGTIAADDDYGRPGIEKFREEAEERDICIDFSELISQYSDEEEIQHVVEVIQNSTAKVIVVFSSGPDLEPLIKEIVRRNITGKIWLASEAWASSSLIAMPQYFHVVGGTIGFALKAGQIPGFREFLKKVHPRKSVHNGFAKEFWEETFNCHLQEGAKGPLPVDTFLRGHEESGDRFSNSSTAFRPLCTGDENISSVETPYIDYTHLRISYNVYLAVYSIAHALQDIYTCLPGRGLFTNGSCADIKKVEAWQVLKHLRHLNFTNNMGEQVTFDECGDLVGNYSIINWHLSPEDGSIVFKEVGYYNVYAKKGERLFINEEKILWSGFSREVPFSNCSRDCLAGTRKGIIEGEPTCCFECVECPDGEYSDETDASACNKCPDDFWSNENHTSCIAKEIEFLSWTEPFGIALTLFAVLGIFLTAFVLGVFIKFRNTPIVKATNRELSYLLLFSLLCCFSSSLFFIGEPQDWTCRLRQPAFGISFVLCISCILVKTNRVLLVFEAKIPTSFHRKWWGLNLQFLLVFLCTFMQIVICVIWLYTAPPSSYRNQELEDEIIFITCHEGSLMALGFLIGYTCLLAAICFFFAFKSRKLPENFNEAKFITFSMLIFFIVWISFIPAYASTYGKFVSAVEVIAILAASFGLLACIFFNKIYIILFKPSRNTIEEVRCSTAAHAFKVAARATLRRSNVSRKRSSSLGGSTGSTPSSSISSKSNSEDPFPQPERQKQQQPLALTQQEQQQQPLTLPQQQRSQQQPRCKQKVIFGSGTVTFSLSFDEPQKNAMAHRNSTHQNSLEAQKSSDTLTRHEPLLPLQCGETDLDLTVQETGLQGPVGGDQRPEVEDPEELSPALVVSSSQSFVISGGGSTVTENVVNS
Experimental: Oocytes were injected with poly(A)^+ -enriched mRNA from human parathyroid tissue (hyperplastic glands from a case of secondary HPT).
Following incubation, an oocyte was placed into a 100-μl plastic chamber and superfused with MBS at a flow rate of 0.5 ml/min using a peristaltic pump. Test molecules or inorganic polycations were added by rapidly moving the tubing into different buffers. Recording and current-passing electrodes were constructed from thin-wall capillary tubing pulled to a resistance of 1-3 Mohms and filled with 3 M KCl. […] Currents were recorded directly onto a strip chart recorder.
Using this screen allows one to test for an action directly on the calcium receptor. Oocytes expressing the calcium receptor also responded to several molecules active on intact parathyroid cells when screened as follows. […] This offers rather compelling evidence showing that these molecules act on the calcium receptor or on some other protein intimately associated with its function.

human parathyroid cells = test: PTH secretion from human parathyroid cells; type: cell-based; conditions: human (adenoma) parathyroid cells
Experimental: PTH secretion was measured by first suspending cells in PCB containing 0.5 mM CaCl2 and 0.1% BSA.
For human cells, a commercially available radioimmunoassay kit (INS-PTH; Nichols Institute, Los Angeles, Calif.) which recognizes intact and N-terminal human PTH was used because GW-1 antibody recognizes human PTH poorly.

serum calcium = test: hypocalcemic response in thyroidectomized rats; type: in vivo, rat; conditions: 3 to 100 mg/kg p.o.
Excerpt: In subsequent studies, rats received a thyroidectomy (parathyroid glands intact). This surgical procedure effectively removed the C-cells secreting calcitonin and therefore enabled the relative contributions of PTH and calcitonin to the hypocalcemic effect of this compound to be determined. […] The only difference was that the rate of onset of the hypqcalcemic response was somewhat delayed in thyroidectomized animals. […] Stimulatory effects of this compound on calcitonin secretion increases the rate of onset, but not the extent, of hypocalcemia.

| SMILES | effect on [Ca2+]i in C-cells (C-cell calcium receptor) | mobilization of intracellular Ca2+ in oocytes (calcium receptor; hexacyclen 135 μM, neomycin 100 μM, NPS 382 5 mM) | effect on Cl- current (calcium receptor; listed as Neomycin B) | effect on Cl- current (calcium receptor; listed as neomycin B) | effect in water-injected oocytes (calcium receptor; listed as Neomycin B) | effect in water-injected oocytes (calcium receptor; listed as neomycin B) | effect on PTH secretion (human parathyroid cells; listed as Neomycin B) | effect on PTH secretion (human parathyroid cells; listed as neomycin B) | hypocalcemic response in thyroidectomized rats (serum calcium) |
| --- | --- | --- | --- | --- | --- | --- | --- | --- | --- |
| NC[C@@H]1O[C@H](O[C@H]2[C@@H](O)[C@H](O[C@@H]3[C@@H](O)[C@H](N)C[C@H](N)[C@H]3O[C@H]3O[C@H](CN)[C@@H](O)[C@H](O)[C@H]3N)O[C@@H]2CO)[C@H](N)[C@@H](O)[C@@H]1O [Neomycin] | fails to affect basal or evoked increases in C-cells; also recorded: without effect on basal [Ca^2+ ]i; also recorded: fail to affect the calcium receptors on C-cells or osteoclasts | also effective | evoked oscillatory increases in the Cl^- | evokes oscillating increases in the Cl^- | failed to elicit a response in five water-injected oocytes | failed to cause any change in the current | inhibited PTH secretion from human parathyroid cells | inhibit PTH secretion | – |
| NCCCNCCCCNCCCNCCCNCCCNC(=O)Cc1c[nH]c2ccccc12 [NPS 019] | mobilization of intracellular Ca^2+ | – | – | – | – | – | – | – | – |
| COc1cccc([C@@H](C)NCCCc2ccccc2Cl)c1 [NPS R-568, (R)-(+)-N-[3-(2-chlorophenyl)propyl]-α-methyl-3-methoxybenzylamine] | – | – | – | – | – | – | – | – | hypocalcemic response equal in magnitude to that produced in sham-operated animals |

Reference: US5962314A, “Calcium receptor-active molecules” (priority 1997, dated 1999)
